# From patent US9248088B2, “Compositions and methods for skin conditioning” (TELOMERASE ACTIVATION SCIENCES, INC., priority 2003, dated 2016)
# Read-outs that look alike come from different tables or passages of the source.
# Columns and labels:
# [1] = tested on: telomerase activity in HEKneoP cells (neonatal keratinocytes); test: TRAP assay of telomerase activity in neonatal keratinocytes; type: cell-based, human; conditions: for MEC (minimum effective concentration producing telomerase activity twice that of DMSO control): HEKneoP cells, 100% greater than DMSO control; for telomerase activity (result in words): neonatal keratinocytes / normal cells
# [2] = type: in vitro ADME; conditions: human
# Experimental: J. Franz et al., Abst. J Invest Dermatol 94:525, 1990). […] The receptor solution concentration (representing the inner surface of the skin) was then collected at predetermined intervals over 48 hours, to determine extent and rate of appearance of labeled compound.
# [3] = tested on: young neonatal keratinocytes; test: scratch assay (cell reconfluence), young neonatal keratinocytes; type: cell-based, human; conditions: FIG. 5, 2 at 0.01 μM; for SCtest (percentage of closure): SC=100-[100×Wn/W0]
# Experimental: (§1) As used herein, “as measured in a scratch assay” refers to measurement of cell reconfluence in keratinocytes or fibroblasts according to the following protocol, and expressed as the value of SC shown in the formula below. Cells are plated in flasks ((5×10^5 cells per flask) and cultured for two days in a humidified chamber at 5% CO2, 37° C. A 2 ml plastic pipette is gently dragged thought the culture to “scratch” the cell surface. The ideal scratch is approximately 2-3 mm wide and 50 mm long (along the long axis of the tissue culture flask). The cells are retreated with medium containing either vehicle (control sample) or test compositions at multiple dilutions. A scratch area is identified, the flask marked, and the appearance of the cells documented photographically over 3-4 days continued culturing of the cells. Amount of cell reconfluence, or closure of the scratch, is determined by measuring width of the scratch over time for compound-treated samples relative to vehicle-treated or other control cells. […] Percentage of closure is calculated by the following formula: SC=100−[100×Wn/W0], where Wn is the width of the scratch on day n and W0 is the width of the scratch on day one (i.e. immediately after scratching).
# [4] = tested on: aging adult keratinocytes; test: scratch assay (cell reconfluence), aging adult keratinocytes; type: cell-based, human; conditions: for Approx. scratch width (arbitrary units) Day 1 test: 0.1 μg/ml (about 0.13 μM) 1
# Experimental: As used herein, “as measured in a scratch assay” refers to measurement of cell reconfluence in keratinocytes or fibroblasts according to the following protocol, and expressed as the value of SC shown in the formula below. Cells are plated in flasks ((5×10^5 cells per flask) and cultured for two days in a humidified chamber at 5% CO2, 37° C. A 2 ml plastic pipette is gently dragged thought the culture to “scratch” the cell surface. The ideal scratch is approximately 2-3 mm wide and 50 mm long (along the long axis of the tissue culture flask). The cells are retreated with medium containing either vehicle (control sample) or test compositions at multiple dilutions. A scratch area is identified, the flask marked, and the appearance of the cells documented photographically over 3-4 days continued culturing of the cells. Amount of cell reconfluence, or closure of the scratch, is determined by measuring width of the scratch over time for compound-treated samples relative to vehicle-treated or other control cells. […] Percentage of closure is calculated by the following formula: SC=100−[100×Wn/W0], where Wn is the width of the scratch on day n and W0 is the width of the scratch on day one (i.e. immediately after scratching). […] Briefly, a scratch, typically about 2-3 mm in width, is created through a mass of plated cells, and the time needed for the cells to become confluent is observed. […] (GRN163 is a telomerase inhibitor oligonucleotide that targets the template region of the telomerase RNA component. Specifically, GRN163 is a 13-mer N3′→P5′ thiophosphoramidate oligonucleotide, described in detail in PCT Pubn. No. WO 01/18015. GRN137227 is a 13-mer N3′→P5′ thiophosphoramidate control oligonucleotide having a mismatched sequence.)
# [5] = tested on: aging neonatal keratinocytes; test: scratch assay (cell reconfluence), aging neonatal keratinocytes; type: cell-based, human; conditions: FIG. 7; compared with 50 ng/mL PDGF
# Experimental: as §1
compound,measurement,setting,value
"CC(C)(O)[C@@H]1CC[C@](C)([C@H]2[C@@H](O)C[C@@]3(C)[C@@H]4CC=C5C(=CC[C@H](O)C5(C)C)[C@]4(C)CC[C@]23C)O1 [Compound 5, 20R,24S-epoxy-3β,16β,25-trihydroxy-9β-methyl-19-norlanost-1,5-diene]",MEC (minimum effective concentration producing telomerase activity twice that of DMSO control),[1],0.10 µM
"CC(C)(O)[C@@H]1CC[C@](C)([C@H]2[C@@H](O)C[C@@]3(C)[C@@H]4C[C@H](O)[C@H]5C(C)(C)[C@@H](O)CC[C@]5(C)C4=CC[C@]23C)O1 [Compound 3, astragenol]",MEC (minimum effective concentration producing telomerase activity twice that of DMSO control),[1],0.03 µM
"CC(C)(O)[C@@H]1CC[C@](C)([C@H]2[C@@H](O)C[C@@]3(C)[C@@H]4C[C@H](O)[C@H]5C(C)(C)[C@@H](OC6OC[C@@H](O)[C@H](O)[C@H]6O)CC[C@@]56C[C@@]46CC[C@]23C)O1 (stereo partly drawn) [Compound 7, cycloastragenol 3-β-D-xylopyranoside]",MEC (minimum effective concentration producing telomerase activity twice that of DMSO control),[1],3.2 µM
"EGF: EGF (epidermal growth factor), used at 10 nM as comparison in the TRAP assay [reference compound]",telomerase activity,[1]; cells treated with 10 nM EGF,about 200%
astragaloside IV 16-one [Compound 4],MEC (minimum effective concentration producing telomerase activity twice that of DMSO control),[1],0.03 µM
"CC(C)(O)[C@@H]1CC[C@](C)([C@H]2[C@@H](O)C[C@@]3(C)[C@@H]4C[C@H](OC5O[C@H](CO)[C@@H](O)[C@H](O)[C@H]5O)[C@H]5C(C)(C)[C@@H](O)CC[C@@]56C[C@@]46CC[C@]23C)O1 (stereo partly drawn) [Compound 6, cycloastragenol 6-β-D-glucopyranoside]",MEC (minimum effective concentration producing telomerase activity twice that of DMSO control),[1],3.2 µM
"CC(C)=CCC[C@](C)(O)[C@H]1CC[C@]2(C)[C@@H]1[C@H](O)C[C@@H]1[C@@]3(C)CC[C@H](O)C(C)(C)[C@@H]3[C@@H](O[C@@H]3O[C@H](CO)[C@@H](O)[C@H](O)[C@H]3O)C[C@]12C [Compound 8, ginsenoside RH1]",MEC (minimum effective concentration producing telomerase activity twice that of DMSO control),[1],10 µM
"CC(C)(O)[C@@H]1CC[C@](C)([C@H]2[C@@H](O)C[C@@]3(C)[C@@H]4C[C@H](O)[C@H]5C(C)(C)[C@@H](O)CC[C@@]56C[C@@]46CC[C@]23C)O1 [Compound 2, cycloastragenol]",MEC (minimum effective concentration producing telomerase activity twice that of DMSO control),[1],0.01 µM
same,telomerase activity,"[1]; at 0.1 μM, maximum of the concentration series",about 300 % of control
same,telomerase activity (result in words),[1],increase of telomerase activity
same,total delivery over 48 hours,[2]; 0.01 wt %,~66 ng
same,total delivery over 48 hours,[2]; 0.25 wt %,~600 ng
same,SCtest (percentage of closure),[3],90.5%
same,Approx. scratch width (arbitrary units) Day 1 test,[3]; first 'Day 1 test' column,21 arbitrary units
same,Approx. scratch width (arbitrary units) Day 1 test,[3]; second 'Day 1 test' column,2 arbitrary units
"CC(C)(O)[C@@H]1CC[C@](C)([C@H]2[C@@H](O)C[C@@]3(C)[C@@H]4C[C@H](O[C@@H]5O[C@H](CO)[C@@H](O)[C@H](O)[C@H]5O)[C@H]5C(C)(C)[C@@H](O[C@@H]6OC[C@@H](O)[C@H](O)[C@H]6O)CC[C@@]56C[C@@]46CC[C@]23C)O1 [Compound 1, astragaloside IV]",MEC (minimum effective concentration producing telomerase activity twice that of DMSO control),[1],0.01 µM
same,telomerase activity,"[1]; at 1.0 μM, maximum of the concentration series",about 360 % of control
same,telomerase activity (result in words),[1],increase in telomerase activity
same,SCtest (percentage of closure),"[4]; FIG. 4, 0.1 μg/ml 1, SC=100-[100×Wn/W0]",100%
same,Approx. scratch width (arbitrary units) Day 1 test,"[4]; FIG. 4, first 'Day 1 test' column",17 arbitrary units
same,Approx. scratch width (arbitrary units) Day 1 test,"[4]; FIG. 4, second 'Day 1 test' column",0 arbitrary units
same,confluence of treated cells,"[4]; FIG. 4, 0.1 μg/ml (about 0.13 μM), versus control cells at day 4",confluent at day 4
same,cell proliferation,"[4]; FIG. 6, 1 alone",promotion of cell proliferation
same,promotion of cell reconfluence,[5],comparable to that of PDGF
same,SCtest (percentage of closure),[3],100%
same,Approx. scratch width (arbitrary units) Day 1 test,[3]; first 'Day 1 test' column,18 arbitrary units
same,Approx. scratch width (arbitrary units) Day 1 test,[3]; second 'Day 1 test' column,0 arbitrary units
